Structures are written as SMILES.

The target of the experiment is EcPNP (Escherichia coli purine nucleoside phosphorylase) (Escherichia coli, UniProt P0ABP8). The conditions noted are these: phosphate co-substrate (50 mM potassium phosphate), 100 mM HEPES pH 7.4, 25 °C.
EcPNP (Escherichia coli purine nucleoside phosphorylase), sequence (P0ABP8 2-239): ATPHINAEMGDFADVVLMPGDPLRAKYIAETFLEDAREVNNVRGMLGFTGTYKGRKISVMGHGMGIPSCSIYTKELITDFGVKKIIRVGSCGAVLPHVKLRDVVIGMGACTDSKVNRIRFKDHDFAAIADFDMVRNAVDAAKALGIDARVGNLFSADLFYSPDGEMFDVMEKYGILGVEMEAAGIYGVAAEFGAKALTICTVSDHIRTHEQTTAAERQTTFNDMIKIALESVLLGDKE

On to `Nc1nc(F)nc2c1ncn2[C@@H]1O[C@H](CO)[C@@H](O)[C@@H]1O` [F-araA, 9-β-D-arabinofuranosyl-2-F-adenine], for which the Km – broadly, the substrate concentration at which the rate is half of its maximum – is about 950 µM.

Values taken from publication PMC7039746 (Cancer chemotherapy and pharmacology, 2020).
